Test results from patent US20210161997A1, “TREATING DISEASES VIA TARGETED MODULATION OF GENE SIGNALING NETWORKS” (Camp4 Therapeutics Corporation, priority 2018, published 2021).

B1: GDF2 (BMP9): TGF-beta activator (protein, UniProt Q9UK05 320-429, looked up)
Growth/differentiation factor …: SAGAGSHCQKTSLRVNFEDIGWDSWIIAPKEYEAYECKGGCFFPLADDVTPTKHAIVQTLVHLKFPTKVGKACCVPTKLSPISVLYKDDMGVPTLKYHYEGMSVAECGCR
B2: BMP4: TGF-beta activator (protein, UniProt P12644 293-408, looked up)
Bone morphogenetic protein 4: SPKHHSQRARKKNKNCRRHSLYVDFSDVGWNDWIVAPPGYQAFYCHGDCPFPLADHLNSTNHAIVQTLVNSVNSSIPKACCVPTELSAISMLYLDEYDKVVLKNYQEMVVEGCGCR

What was measured:
Assay type in all cases: cell-based
[1] = tested on: LECT2; test: RNA-seq of LECT2 expression in compound-treated primary human hepatocytes
Method: Human hepatocytes were obtained from two donors from Massachusetts General Hospital, namely MGH54 and MGH63, and one donor from Lonza, namely HUM4111B. Cryopreserved hepatocytes were cultured in plating media for 16 hours, transferred to maintenance media for 4 hours. Cultured on serum-free media for 2 hours, then a compound was added. The hepatocytes were maintained on the serum-free media for 16 hours prior to gene expression analysis. Primary human hepatocytes were stored in the vapor phase of a liquid nitrogen freezer (about −130° C.).
Human hepatocytes cultured as described above were plated in 24-well format, adding 375,000 cells per well in a volume of 500 ul plating medium. Four hours before treatment, cells were washed with PBS and the medium was changed to either: fresh maintenance medium (complete) or modified maintenance medium.
Compound stocks were prepared at 1000× final concentration and added in a 2-step dilution to the medium to reduce risk of a compound precipitating out of solution when added to the cells, and to ensure reasonable pipetting volumes. One at a time, each compound was first diluted 10-fold in warm (about 37° C.) modified maintenance medium (initial dilution=ID), mixed by vortexing, and the ID was diluted 100-fold into the cell culture (e.g. 5.1 ul into 1 well of a 24-well plate containing 0.5 mL medium). The plate was mixed by carefully swirling and after all wells were treated and returned to the incubator overnight. If desired, separate plates/wells were treated with vehicle-only controls and/or positive controls. If using multi-well plates, controls were included on each plate. After about 18 hours, cells were harvested for further analysis, e.g., ChIP-seq, RNA-seq, ATAC-seq, etc.
This protocol is a modified version of the following protocols: MagMAX mirVana Total RNA Isolation Kit User Guide (Applied Biosystems #MAN0011131 Rev B.0), NEBNext Poly(A) mRNA Magnetic Isolation Module (E7490), and NEBNext Ultra Directional RNA Library Prep Kit for Illumina (E7420) (New England Biosystems #E74901).
The MagMAX mirVana kit instructions (the section titled “Isolate RNA from cells” on pages 14-17) were used for isolation of total RNA from cells in culture. Two hundred μl of Lysis Binding Mix was used per well of the multiwell plate containing adherent cells (usually a 24-well plate).
For mRNA isolation and library prep, the NEBNext Poly(A) mRNA Magnetic Isolation Module and Directional Prep kit was used. RNA isolated from cells above was quantified, and prepared in […] of each sample in 50 μl of nuclease-free water. This protocol may be run in microfuge tubes or in a 96-well plate.
Standard QC were applied (read integrity, mapping statistics, library complexity, fragment bias) to remove unsatisfactory samples. […] Log 2 fold change and significance values were computed using PME count data (with replicates explicitly modeled versus pan-experiment controls), median ratio normalized, using maximum likelihood estimation rather than maximum a posteriori, and disabling the use of Cook's distance cutoff when determining acceptable adjusted p-values. […] RNA-seq signals were also normalized by read depth and visualized using the UCSC browser.
To identify small molecules that modulate target gene expression, primary human hepatocytes were prepared as a monoculture, and at least one small molecule compound was applied to the cells.
RNA-seq was performed to determine the effects of the compounds on the expression of the target genes in hepatocytes. Fold change was calculated by dividing the level of expression in the cell system that had been perturbed by the level of expression in an unperturbed system. Changes in expression having a p-value ≤0.05 were considered significant.
Significance was defined as an FPKM ≥1, a log 2(fold change) ≥0.5, and a q-value of ≤0.05 for all targets except for CPOX.

[2] = tested on: NOTCH2; test: RNA-seq of NOTCH2 expression in compound-treated primary human hepatocytes; details: primary human hepatocytes
Method: (§1) Human hepatocytes were obtained from two donors from Massachusetts General Hospital, namely MGH54 and MGH63, and one donor from Lonza, namely HUM4111B. Cryopreserved hepatocytes were cultured in plating media for 16 hours, transferred to maintenance media for 4 hours. Cultured on serum-free media for 2 hours, then a compound was added. The hepatocytes were maintained on the serum-free media for 16 hours prior to gene expression analysis. Primary human hepatocytes were stored in the vapor phase of a liquid nitrogen freezer (about -130° C.). Human hepatocytes cultured as described above were plated in 24-well format, adding 375,000 cells per well in a volume of 500 ul plating medium. Four hours before treatment, cells were washed with PBS and the medium was changed to either: fresh maintenance medium (complete) or modified maintenance medium. Compound stocks were prepared at 1000× final concentration and added in a 2-step dilution to the medium to reduce risk of a compound precipitating out of solution when added to the cells, and to ensure reasonable pipetting volumes. […] The plate was mixed by carefully swirling and after all wells were treated and returned to the incubator overnight. If desired, separate plates/wells were treated with vehicle-only controls and/or positive controls. If using multi-well plates, controls were included on each plate. After about 18 hours, cells were harvested for further analysis, e.g., ChIP-seq, RNA-seq, ATAC-seq, etc. This protocol is a modified version of the following protocols: MagMAX mirVana Total RNA Isolation Kit User Guide (Applied Biosystems #MAN0011131 Rev B.0), NEBNext Poly(A) mRNA Magnetic Isolation Module ([…]), and NEBNext Ultra Directional RNA Library Prep Kit for Illumina ([…]) (New England Biosystems #E74901). […] Two hundred μl of Lysis Binding Mix was used per well of the multiwell plate containing adherent cells (usually a 24-well plate). For mRNA isolation and library prep, the NEBNext Poly(A) mRNA Magnetic Isolation Module and Directional Prep kit was used. RNA isolated from cells above was quantified, and prepared in […] of each sample in 50 μl of nuclease-free water. This protocol may be run in microfuge tubes or in a 96-well plate. […] Genomic alignments were converted to transcriptome alignments based on reference transcript annotations from the Human GENCODE Gene Set release 24 (Harrow et al., Genome Res. […] Standard QC were applied (read integrity, mapping statistics, library complexity, fragment bias) to remove unsatisfactory samples. Differential gene expression was computed using the negative binomial model implemented by DESeq2 version 1.16.1 (Love et al., Genome Biol. (2014) 15(12):550). […] RNA-seq signals were also normalized by read depth and visualized using the UCSC browser. To identify small molecules that modulate target gene expression, primary human hepatocytes were prepared as a monoculture, and at least one small molecule compound was applied to the cells. RNA-seq was performed to determine the effects of the compounds on the expression of the target genes in hepatocytes. Fold change was calculated by dividing the level of expression in the cell system that had been perturbed by the level of expression in an unperturbed system.

[3] = tested on: JAG1; test: RNA-seq of JAG1 expression in compound-treated primary human hepatocytes; details: for JAG1 Fold Change (Log2): primary human hepatocytes; for Significant modulation of JAG1 (in words): summary of Table 6
Method: as §1

[4] = tested on: SERPINC1 mRNA; test: Quantitative PCR of SERPINC1 mRNA in primary human hepatocytes (Lonza Hu4282) treated with compounds; details: quantitative PCR
[5] = tested on: SERPINC1 mRNA; test: Quantitative PCR of SERPINC1 mRNA in mouse hepatocytes treated with compounds; details: for SERPINC1 mRNA, Mouse Heps, 1 uM: compound 1 uM; for SERPINC1 mRNA, Mouse Heps, 10 uM: compound 10 uM
Method: Samples were amplified using Taqman probes from ThermoFisher.
In some examples, RQ Min and RQ Max values are also reported. RQ Min and RQ Max are the minimum and maximum relative levels of gene expression in the test samples, respectively. They were calculated using the confidence level set in the analysis settings and the confidence level was set to one standard deviation (SD). These values were calculated using standard deviation as follows: […].
Compounds were tested in hepatocytes for upregulation of SERPINC1 mRNA for identification of potential treatments of SERPINC1/AT III deficiency.

[6] = tested on: ANGPTL3; test: RNA-seq of ANGPTL3 expression in compound-treated primary human hepatocytes; details: additional compounds (Table 13), linear fold change
Summary of the method: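 Cryopreserved primary human hepatocytes from three donors, plated at 375,000 cells/well, switched to complete or modified maintenance medium, then dosed with compound (stocks at 1000× final) for about 18 h. Poly(A) mRNA was sequenced directionally, mapped to GRCh38 with STAR, and gene-level abundance (counts, FPKM) estimated with RSEM against GENCODE 24.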

Row | Molecule | LECT2 Fold Change (Log2) [1] [Log2] | NOTCH2 Fold Change (Log2) [2] [Log2] | JAG1 Fold Change (Log2) [3] [Log2] | Significant modulation of JAG1 (in words) [3] | further results
1 | O=[N+]([O-])c1ccc(Sc2cccc[n+]2[O-])c2nonc12 [NSC228155] | −0.74 |  |  |  | 
2 | [H]/N=C(/N)N/C(=N/[H])NCCc1ccccc1 [Phenformin] |  | 0 | 1.14 | significantly modulate only JAG1 | 
3 | CCCC(=O)O[C@@H]1[C@@H](C)[C@@]2(O)[C@@H](C=C(CO)C[C@]3(O)C(=O)C(C)=C[C@@H]23)[C@@H]2C(C)(C)[C@]12OC(=O)CCC [Phorbol 12,13-dibutyrate] | −0.65 |  |  |  | 
4 | CO[C@H]1/C=C/O[C@@]2(C)Oc3c(C)c(O)c4c(O)c(c(/C=N/N5CCN(C)CC5)c(O)c4c3C2=O)NC(=O)/C(C)=C\C=C\[C@H](C)[C@H](O)[C@@H](C)[C@@H](O)[C@@H](C)[C@H](OC(C)=O)[C@@H]1C [Rifampicin] | −0.88 |  |  |  | 
5 | CN1C/C=C/CCOc2cccc(c2)-c2ccnc(n2)Nc2cccc(c2)C1 [SB1317/TG02] |  |  |  |  | SERPINC1 mRNA, Lonza Hu4282, 1 uM ([4]; primary human hepatocytes Lonza Hu4282, compound 1 uM): 1.9; SERPINC1 mRNA, Lonza Hu4282, 10 uM ([4]; primary human hepatocytes Lonza Hu4282, compound 10 uM): 2.28; SERPINC1 mRNA, Mouse Heps, 1 uM [5]: 1.13; SERPINC1 mRNA, Mouse Heps, 10 uM [5]: 1.85
6 | C[C@]12CC[C@@H]3c4ccc(O)cc4CC[C@H]3[C@@H]1CC[C@@H]2O [b-Estradiol] | −0.90 |  |  |  | 
7 | COc1cccc2cc(-c3nc([C@H]4CC[C@H](C(=O)O)CC4)n4ncnc(N)c34)[nH]c12 [compound 308 (OSI-027)] |  |  |  |  | SERPINC1 mRNA, H8290, 1 uM ([4]; hepatocytes H8290, compound 1 uM): 1.7; SERPINC1 mRNA, H8290, 10 uM ([4]; hepatocytes H8290, compound 10 uM): 1.9; SERPINC1 mRNA, Mouse Heps, 1 uM [5]: 1.53; SERPINC1 mRNA, Mouse Heps, 10 uM [5]: 2.36
8 | B1 |  | 0 | 1.03 | significantly modulate only JAG1 | 
9 | B2 |  | 0 | 0.63 | significantly modulate only JAG1 | ANGPTL3-LINEAR FOLD CHANGE [6]: 0.3463
